Laboratory results published in patent US5504190A, “Equimolar multiple oligomer mixtures, especially oligopeptide mixtures” (priority 1994, dated 1996).
Read-outs that look alike come from different tables or passages of the source. Peptide text beside a SMILES is read from it.

What was measured:
[1] = test system: Herpes Simplex Virus Type 1 (HSV-1); assay: HSV-1 plaque assay on Vero cell monolayers; type: cell-based; conditions: Table 10
Experimental: The screenings utilized a plaque assay in which 24-well plates containing Vero (monkey kidney) cell monolayers were overlaid with 400 μg/ml of each peptide or mixture in M-199V (medium and newborn calf serum). The plates were incubated for two hours at 37° C.
Each well was thereafter aspirated and immediately overlaid with 400 μg of peptide or mixture in DMEM-O (Dulbeco's modified Eagle's medium and pooled human gamma globulin) and incubated for 48 hours. […] At 48 hours, the plate wells were aspirated, rinsed, fixed and stained. Plaque formation, if present, was tallied and recorded.
The PFU's per well of six controls were averaged and represent 100 percent plaque formation at approximately 50 PFU's per well. The average PFU's per screened peptide or mixture (duplicate wells) quantitatively represented percent viral inhibition of plaque formation or infection. For example, a count of 10 PFU's of a screened peptide compared to the control of 50 PFU's would represent 20 percent plaque formation and 80 percent plaque inhibition.

[2] = test system: Vero (monkey kidney) cell monolayers; type: cell-based
[3] = target: mAb 19B10; assay: competitive ELISA, inhibition of mAb 19B10 binding to plate-adsorbed peptide SEQ ID NO:89; conditions: as the positions were defined
Source text: The antigenic determinant recognized by mAb 19B10 has the sequence Asp-Val-Pro-Asp-Tyr-Ala (SEQ ID NO:88). […].
Oligopeptide sets were screened in the general manner discussed previously, except that rather than using 400 mixture sets whose first two positions were defined and whose last four were equimolar mixtures for the first screen, 324 such N-acetyl C-amide sets were used based on mixtures of eighteen amino acids. Tryptophan and cysteine were not included with these mixture.

[4] = test system: Staphylococcus aureus (ATCC 29213); assay: microbe, parasite or virus in culture
Experimental: (§1) Escherichia coli (ATCC 25922) was used as Gram-negative (-) and Staphylococcus aureus (ATCC 29213) as Gram-positive (+) bacteria. Bacteria were grown overnight (about 18 hours) at 37° C. in Mueller-Hinton (MH) broth. This culture was reinoculated and incubated at 37° C. to reach the exponential phase of bacteria growth; i.e., a final bacterial suspension containing about 10^5 to 5×10^5 colony-forming units (CFU)/ml. The concentration of cells was established by plating 100 μl of different dilutions of the culture solution (e.g., 10^-2, 10^-3 and 10^-4) onto solid agar plates. Following an overnight (about 18 hours) incubation at 37° C., the CFU thus formed were counted on each agar plate.
(§2) 96-Well tissue culture plates were utilized, with eight wells per plate containing only medium as control blanks, whereas eight other wells contained medium plus cells as a positive growth control. These controls were used to detect possible medium contamination and to provide a measure of uninhibited growth of the microorganisms.
(§3) For initial screening studies, oligopeptide sets were added to the bacterial suspension to reach a final concentration of 1 mg/ml.
(§4) The plates were incubated overnight (about 18 hours) at 37° C., and the optical density (OD) determined at 620 nm after different times of incubation.

[5] = test system: human red blood cells; type: cell-based
Experimental: Assays were carried out in 96-well culture tissue plates. Four wells per plate contained 125 μl of a non-peptide positive control of the surfactant Triton X-100 (poly)oxyethanol (9) octyl phenyl ether; 1 percent in deionized water!, and four wells per plate contained 115 μl of a control blank of phosphate-buffered saline (PBS). The hemolytic peptide melittin was used as comparative control. The controls served to detect possible contamination and to calculate the percent hemolysis of each peptide.
Human red blood cells (RBC's) were washed with PBS and centrifuged to separate them from the serum. The cells are then resuspended in PBS to a final suspension of 0.5 percent RBC. This suspension (125 μl) was added to the peptide mixture and control solutions. The plates were incubated at 37° C. for one hour and centrifuged at 2800 rpm for five minutes. The release of hemoglobin resulting from the cell lysis was determined by measuring the OD at 414 nm of 100 μl of the supernatant.

[6] = test system: Escherichia coli (ATCC 25922); assay: antimicrobial assay, growth inhibition of E. coli (OD 620 nm); type: cell-based; conditions: Tables 1 and 2
Experimental: as §1, §2, §3, §4

[7] = target: monoclonal antibody (mAb) 125-10F3; assay: competitive ELISA, inhibition of mAb 125-10F3 binding to plate-adsorbed polypeptide SEQ ID NO:1
Source text: Monoclonal antibody (mAb) 125-10F3 was used in these studies, which binds specifically to a 13-residue polypeptide […](SEQ ID NO:1) Appel et al., J. Immunol., 144:976-983 (1990)!. The antigenic determinant recognized by the mAb is Pro-Tyr-Pro-Asn-Leu-Ser (SEQ ID NO:2), determined previously using individual omission analogs of the polypeptide as is seen in FIG. 2.
The peptide library was screened utilizing a competitive ELISA system that measured the inhibition in solution of the binding of the mAb to polypeptide SEQ ID NO:1 adsorbed to an assay plate by each individual element of the synthetic combinatorial library. […] Screening data for an exemplary eighteen of the 400 sets are shown in FIG. 4, with arrows at the two best binding sequences.
The concentration of the inhibiting oligopeptide sets at which 50 percent of the mAb was inhibited in its binding to the polypeptide (IC-50) was determined.

[8] = test system: Candida albicans ATCC 10231; assay: antifungal assay, growth inhibition of C. albicans (OD 620 nm); type: cell-based; conditions: Table 9
Experimental: Antifungal studies were carried out Candida albicans ATCC 10231 as the target microbe. The yeast culture was spread onto YM agar plates and incubated at 30° C. for 48 hours. Three colonies of this culture (about 1 mm in diameter each) were then inoculated in 5 ml of 1 X PBS solution. The suspension was vortexed and diluted 10-fold in YM broth, for an approximate final concentration of 10^5 to 5×10^5 CFU (colony forming units)/ml.
Actual concentrations of yeast cultures were determined by plating 100 μl of different solutions of the culture solution (10^-3, 10^-4 and 10^-5) onto solid YM agar plates. After 48 hours of incubation at 30° C., CFU formed were counted from each plate.
The assays were carried out in 96-well tissue culture plates. Eight wells containing only medium of YM broth served as negative controls, whereas eight wells containing medium and yeast culture served as positive controls. These controls were used to detect possible medium contamination and to provide a measure of uninhibited growth of the yeast.
For screening studies, oligopeptide mixtures were added to the yeast suspension in duplicates to reach a final concentration of 1.5 mg/ml. […] The plates were incubated over a period of 48 hours at 30° C., and the optical density (OD) at 24 and 48 hours was determined at 620 nm.

[9] = 7-mer studies, Tables 5 and 6 and parent 6-mer
[10] = later study completing the Ac-Tyr-Pro series ("in this study"), read-out: IC-50

## CC(=O)N[C@@H](CCCNC(=N)N)C(=O)N[C@@H](CCCNC(=N)N)C(=O)N[C@@H](Cc1c[nH]c2ccccc12)C(=O)N[C@@H](Cc1c[nH]c2ccccc12)C(=O)N[C@@H](CS)C(=O)N[C@@H](CS)C(N)=O [RRWWCC] (Ac-RRWWCC-NH2)
[1]
  concentration for 100 Percent Inhibition: 1 µg/mL
[2]
  Toxic Concentration: 10 µg/mL

## Ac-DVPDYA-NH2 [Ac-Asp-Val-Pro-Asp-Tyr-Ala-NH2]
[3]
  IC50: 30 nM

## Ac-FRWLLF-NH2 [FRWLLF]
[4]; Tables 3 and 4
  IC-50: 11 µg/mL
  MIC: 9 to 18 µg/mL
[5]
  HD-50: 34 µg/mL

## Ac-FRWLLK-NH2 [FRWLLK]
[6]
  IC-50: 5 µg/mL
  MIC: 5 to 10 µg/mL
[5]
  HD-50: 356 µg/mL

## Ac-FRWLLR-NH2 [FRWLLR]
[6]
  IC-50: 4 µg/mL
  MIC: 5 to 10 µg/mL
[4]; Tables 3 and 4
  IC-50: 13 µg/mL
  MIC: 24 to 48 µg/mL
[5]
  HD-50: 171 µg/mL

## Ac-IRRWWRF-NH2 [IRRWWRF]
[4]; [9]
  IC-50: 4.7 µg/mL
  MIC: 4 to 8 µg/mL
[5]
  HD-50: 142 µg/mL

## Ac-PYPNLS-NH2 [Ac-Pro-Tyr-Pro-Asn-Leu-Ser-NH2]
[7]; iterative screening and control study of Example 2, read-out: IC-50 (concentration at which 50 percent of the mAb was inhibited in its binding to the polypeptide)
  IC50: 10 nM
[7]; [10]
  IC50: 40 nM

## Ac-RRWWCA-NH2 [RRWWCA]
[4]; Tables 3 and 4
  IC-50: 8.4 µg/mL
  MIC: 9 to 18 µg/mL
[1]
  concentration for 100 Percent Inhibition: 1 µg/mL
[2]
  Toxic Concentration: 25 µg/mL

## Ac-RRWWCF-NH2 [RRWWCF]
[1]
  concentration for 100 Percent Inhibition: 5 µg/mL
[2]
  Toxic Concentration: 10 µg/mL

## Ac-RRWWCG-NH2 [RRWWCG]
[1]
  concentration for 100 Percent Inhibition: 1 µg/mL
[2]
  Toxic Concentration: 10 µg/mL

## Ac-RRWWCH-NH2 [RRWWCH]
[4]; Tables 3 and 4
  IC-50: 6.2 µg/mL
  MIC: 5.5 to 11 µg/mL
[5]
  HD-50: 128 µg/mL

## Ac-RRWWCK-NH2 [RRWWCK]
[4]; Tables 3 and 4
  IC-50: 5.5 µg/mL
  MIC: 4.8 to 9.6 µg/mL
[5]
  HD-50: 249 µg/mL
[1]
  concentration for 100 Percent Inhibition: 5 µg/mL
[2]
  Toxic Concentration: 10 µg/mL

## Ac-RRWWCM-NH2 [RRWWCM]
[1]
  concentration for 100 Percent Inhibition: 1 µg/mL
[2]
  Toxic Concentration: 10 µg/mL

## Ac-RRWWCW-NH2 [RRWWCW]
[4]; Tables 3 and 4
  IC-50: 4.1 µg/mL
  MIC: 4.5 to 9.0 µg/mL
[5]
  HD-50: 11 µg/mL

## Ac-RRWWCY-NH2 [RRWWCY]
[4]; Tables 3 and 4
  IC-50: 5.4 µg/mL
  MIC: 4.7 to 9.5 µg/mL
[5]
  HD-50: 50 µg/mL

## Ac-RRWWRFF-NH2 [RRWWRFF]
[4]; [9]
  IC-50: 4.7 µg/mL
  MIC: 4 to 8 µg/mL
[5]
  HD-50: 106 µg/mL

## Ac-RRWWRFW-NH2 [RRWWRFW]
[4]; [9]
  IC-50: 2.5 µg/mL
  MIC: 4 to 8 µg/mL
[5]
  HD-50: 59 µg/mL

## Ac-RRWWRR-NH2 [RRWWRR]
[8]
  IC-50: 27.6 µg/mL
  MIC: 30 to 42 µg/mL
[1]
  concentration for 100 Percent Inhibition: 1 µg/mL
[2]
  Toxic Concentration: 25 µg/mL

## Ac-RRWWRW-NH2 [RRWWRW]
[1]
  concentration for 100 Percent Inhibition: 1 µg/mL
[2]
  Toxic Concentration: 25 µg/mL

## Ac-WRRWWRF-NH2 [WRRWWRF]
[4]; [9]
  IC-50: 5.4 µg/mL
  MIC: 4 to 8 µg/mL
[5]
  HD-50: 158 µg/mL

## Ac-YPNLSN-NH2 [Ac-Tyr-Pro-Asn-Leu-Ser-Asn-NH2]
[7]; [10]
  IC50: 150 nM
[7]; mixture inhibited better
  IC-50 value difference between the mixture (positions 1-5 of SEQ ID NO:15, position 6 mixture) and the single peptide: about a factor of four

## Ac-YRRWWRF-NH2 [YRRWWRF]
[4]; [9]
  IC-50: 4.5 µg/mL
  MIC: 4 to 8 µg/mL
[5]
  HD-50: 219 µg/mL
